Experimental data from PubChem BioAssay AID230 (DTP/NCI, 2004).
Where “and” joins values, the source holds several entries; their conditions need not be identical. Equal values may be shown once. Inconclusive results and toxic doses are left out.

System: C3H/He mice, Gardner lymphosarcoma 6C3HED ip, survival T/C
Experiment: NCI In Vivo Anticancer Drug Screen. Data for tumor model Lymphosarcoma Gardner 6C3HED (intraperitoneal) in C3H/He mice
Details: higher = longer survival
Procedure: The antitumor activity of compounds was measured in mice bearing transplantable tumors. Survival or tumor size were measured and the results are expressed as the measurement made in the treated group (T) divided by the measurement made in the vehicle treated control group (C). The tumor model used in this assay is Lymphosarcoma Gardner 6C3HED (intraperitoneal) in C3H/He mice

[1] = endpoint: survival time, mean or median, dose: 4.0 mg/kg/injection, schedule: Q01DX010 (ip), vehicle: saline
[2] = endpoint: survival time, mean or median, dose: 8.0 mg/kg/injection, schedule: Q01DX010 (ip), vehicle: saline
[3] = endpoint: survival time, mean or median, dose: 16.0 mg/kg/injection, schedule: Q01DX010 (ip), vehicle: saline
[4] = endpoint: survival time, mean or median, dose: 32.0 mg/kg/injection, schedule: Q01DX010 (ip), vehicle: saline
[5] = endpoint: survival time, mean or median, dose: 25.0 mg/kg/injection, schedule: Q01DX010 (ip), vehicle: saline
[6] = endpoint: survival time, mean or median, dose: 50.0 mg/kg/injection, schedule: Q01DX010 (ip), vehicle: saline
[7] = endpoint: survival time, mean or median, dose: 100.0 mg/kg/injection, schedule: Q01DX010 (ip), vehicle: saline
[8] = endpoint: survival time, mean or median, dose: 200.0 mg/kg/injection, schedule: Q01DX010 (ip), vehicle: saline

O=CN(O)CC(=O)O
T/C (endpoint: survival time, mean or median, dose: 62.5 mg/kg/injection, schedule: Q01DX010 (ip), vehicle: saline): 96 % of control
T/C (endpoint: survival time, mean or median, dose: 125.0 mg/kg/injection, schedule: Q01DX010 (ip), vehicle: saline): 89 % of control
T/C (endpoint: survival time, mean or median, dose: 250.0 mg/kg/injection, schedule: Q01DX010 (ip), vehicle: saline): 107 % of control
T/C (endpoint: survival time, mean or median, dose: 500.0 mg/kg/injection, schedule: Q01DX010 (ip), vehicle: saline): 100 % of control

CCCCNc1ncnc2c1cnn2C
T/C [1]: 90 % of control and 100 % of control
T/C [2]: 95 % of control and 100 % of control
T/C [3]: 90 % of control and 100 % of control
T/C [4]: 90 % of control and 100 % of control

COc1ccc(/C=N/NC(N)=S)cc1
T/C [4]: 96 % of control
T/C (endpoint: survival time, mean or median, dose: 64.0 mg/kg/injection, schedule: Q01DX010 (ip), vehicle: saline): 92 % of control
T/C (endpoint: survival time, mean or median, dose: 128.0 mg/kg/injection, schedule: Q01DX010 (ip), vehicle: saline): 100 % of control
T/C (endpoint: survival time, mean or median, dose: 256.0 mg/kg/injection, schedule: Q01DX010 (ip), vehicle: saline): 96 % of control

CSc1ncnc2nc[nH]c12
T/C [5]: 100 % of control
T/C [6]: 93 % of control and 100 % of control
T/C [7]: 93 % of control and 100 % of control
T/C [8]: 93 % of control and 103 % of control

Nc1nc([Se])c2ncn(C3OC(CO)C(O)C3O)c2n1 (stereo unspecified)
T/C (endpoint: median survival time, dose: 1.0 mg/kg/injection, schedule: Q01DX009 (ip), vehicle: saline): 98 % of control
T/C (endpoint: median survival time, dose: 2.0 mg/kg/injection, schedule: Q01DX009 (ip), vehicle: saline): 103 % of control
T/C (endpoint: median survival time, dose: 4.0 mg/kg/injection, schedule: Q01DX009 (ip), vehicle: saline): 114 % of control
T/C (endpoint: median survival time, dose: 8.0 mg/kg/injection, schedule: Q01DX009 (ip), vehicle: saline): 107 % of control
T/C (endpoint: median survival time, dose: 16.0 mg/kg/injection, schedule: Q01DX009 (ip), vehicle: saline): 99 % of control

N=C(N)c1ccc(Nc2ccc(C(=N)N)cc2)cc1
T/C (endpoint: survival time, mean or median, dose: 0.75 mg/kg/injection, schedule: Q01DX010 (ip), vehicle: saline): 103 % of control
T/C (endpoint: survival time, mean or median, dose: 1.5 mg/kg/injection, schedule: Q01DX010 (ip), vehicle: saline): 119 % of control
T/C (endpoint: survival time, mean or median, dose: 3.0 mg/kg/injection, schedule: Q01DX010 (ip), vehicle: saline): 107 % of control
T/C (endpoint: survival time, mean or median, dose: 6.0 mg/kg/injection, schedule: Q01DX010 (ip), vehicle: saline): 100 % of control and 103 % of control
T/C (endpoint: survival time, mean or median, dose: 12.0 mg/kg/injection, schedule: Q01DX010 (ip), vehicle: saline): 89 % of control
T/C (endpoint: survival time, mean or median, dose: 24.0 mg/kg/injection, schedule: Q01DX010 (ip), vehicle: saline): 96 % of control

CCCCn1cnc2c(=S)nc[nH]c21
T/C [1]: 100 % of control
T/C [2]: 93 % of control
T/C [3]: 90 % of control and 92 % of control

O=c1[nH]cc(F)c(=O)[nH]1
T/C (endpoint: median survival time, dose: 13.3 mg/kg/injection, schedule: Q01DX009 (ip), vehicle: saline): 222 % of control
T/C (endpoint: median survival time, dose: 20.0 mg/kg/injection, schedule: Q01DX009 (ip), vehicle: saline): 222 % of control
T/C (endpoint: median survival time, dose: 27.0 mg/kg/injection, schedule: Q01DX009 (ip), vehicle: saline): 203 % of control
T/C (endpoint: survival time, mean or median, dose: 5.0 mg/kg/injection, schedule: Q01DX010 (ip), vehicle: saline): 110 % of control
T/C (endpoint: survival time, mean or median, dose: 20.0 mg/kg/injection, schedule: Q01DX010 (ip), vehicle: saline): 283 % of control
T/C (endpoint: survival time, mean or median, dose: 40.0 mg/kg/injection, schedule: Q01DX010 (ip), vehicle: saline): 203 % of control

CCC1=C(c2ccc(OC)cc2)CCC(C(=O)O)C1C (stereo unspecified)
T/C (endpoint: survival time, mean or median, dose: 12.5 mg/kg/injection, schedule: Q01DX010 (sc), vehicle: steriod suspending solution): 96 % of control
T/C (endpoint: survival time, mean or median, dose: 25.0 mg/kg/injection, schedule: Q01DX010 (sc), vehicle: steriod suspending solution): 107 % of control
T/C (endpoint: survival time, mean or median, dose: 50.0 mg/kg/injection, schedule: Q01DX010 (sc), vehicle: steriod suspending solution): 92 % of control
T/C (endpoint: survival time, mean or median, dose: 100.0 mg/kg/injection, schedule: Q01DX010 (sc), vehicle: steriod suspending solution): 100 % of control

NC(=O)N(CCCl)N=O
T/C (endpoint: survival time, mean or median, dose: 0.5 mg/kg/injection, schedule: Q01DX010 (ip), vehicle: saline): 204 % of control
T/C (endpoint: survival time, mean or median, dose: 1.0 mg/kg/injection, schedule: Q01DX010 (ip), vehicle: saline): 228 % of control
T/C (endpoint: survival time, mean or median, dose: 2.0 mg/kg/injection, schedule: Q01DX010 (ip), vehicle: saline): 161 % of control
T/C [1]: 100 % of control

Nc1nc(=O)n(C2CC(O)C(CO)O2)cc1Br (stereo unspecified)
T/C [5]: 107 % of control
T/C [6]: 107 % of control
T/C [7]: 96 % of control and 107 % of control
T/C [8]: 100 % of control and 107 % of control

CC(=O)Nc1ccc2nc3ccc(NC(C)=O)cc3[n+](-c3ccccc3)c2c1
T/C (endpoint: survival time, mean or median, dose: 12.5 mg/kg/injection, schedule: Q01DX010 (ip), vehicle: saline): 107 % of control
T/C [5]: 107 % of control
T/C [7]: 89 % of control
